Values belong to the molecule of their own block, whether it stands above or below them.
How the values were obtained:
[1] = system: mice; assay: Maximal dose which does not provoke any death (LD0), oral route, mice; format: in vivo; conditions: for Toxic symptoms: LD0 test
Experimental: (§1) A gummy suspension of the substance under study was administered by oral route to groups of at least ten mice and the following results were observed: […]

[2] = system: mice; assay: Acute toxicity (LD50), oral route, mice; format: in vivo; conditions: LD50 test
Experimental: (§2) The acute toxicity (LD50) of the stabilizers listed below was carried out, by determining the dose of substance which provoked the death of 50% of the treated animals.
as §1

[3] = Acute toxicity (LD50), oral route, mice; format: in vivo; conditions: mouse, in vivo, gummy suspension
Experimental: as §2, §1

[4] = format: physicochemical; conditions: water; for Extractibility compared with 2-phenyl-indole: aqueous ethanol and heptane
Experimental: The stabilizers according to the invention may be used to stabilize polymers which are intended for the manufacture of packaging and containers for food and drink and it was therefore necessary, in spite of their low toxicity, to determine their extractibility by solvents simulating food and drink. This study was carried out in accordance with the requirements of the Food and Drug Administration (U.S.A). The extractions were performed in semi-rigid bottles, prepared with Compounds Nos. 609 and 676, and with the following solvents: water, an aqueous solution of acetic acid (3%), ethanol-water 50/50, heptane. The ratio of the volume of solvent to the surface of plastic material exposed to extraction was about 1 to 100 ml of solvent, taking into account the geometric characteristics of the bottles. Temperature: 49° C Heating: A thermostated oven for the non-inflammable solvents (water and acetic acid) A thermostated water-bath for the inflammable solvents (alcohol and heptane) Duration of extraction: This is indicated under each result. They are, in each case, intentionally longer than those which would have given stable maximum values. The quantity of stabilizer extracted was determined by colorimetric assay using p-dimethylaminobenzaldehyde, in accordance with the method described in Analytical Chemistry 36, 425-26 (1964). A blank trial was carried out with a Compound of the same formula as Compounds Nos. 609 and 676, but without any stabilizer. A purely negative result was obtained. The amounts of stabilizer assayed are expressed in μg per liter of extraction solvent or, which is the same per 1000 cm^2 of surface submitted to extraction.

[5] = Static thermostability of the stabilized resin, simplified method (GARDNER sub-scale in polyvinyl chloride sheets)
Experimental: (§3) These studies were performed with five different formulae of vinyl resins (hereinafter referred to as Compounds).
(§4) The different Compounds were mixed and calendered in a mixer of which the cylinders were heated to 160° C. The rigid sheets so obtained were then heated in an oven to a temperature between 180° C and 215° C, until incipient carbonization.
(§5) A stove with rotating drums, ventilated and equipped with a thermostat was used for this operation. In the trials described hereunder, the behaviour of the sheets containing one of the stabilizers to be tested was compared to that of sheets of the same formulae but containing 2-phenylindole as stabilizer.
(2) It is also possible to use a simplified method which is more rapid and with which valid results are also obtained: A reference scale is drawn up with sheets of thermally treated polyvinyl chloride, of which the colorations have been definitely determined in GARDNER degrees as above.
A GARDNER sub-scale is thus obtained in polyvinyl chloride sheets which can be directly compared to the sheets to be tested without using the comparator.

[6] = Static thermostability of the stabilized resin, GARDNER Scale comparator; conditions: 210° C
Experimental: as §3, §4, §5
(1) The coloration of the sheets, of which samples were removed from the stove at fixed intervals, was compared to a standard scale of coloration, known as the GARDNER Scale and expressed in terms of the reference figures of the GARDNER Scale.
Comparisons were made with a GARDNER Scale comparator which contains 18 filters of coloured glass and which offers the possibility of observing by transparency and in a limited field of view both the sheet and the reference filters.

[7] = Thermostability of the stabilizers: differential thermoanalysis; format: physicochemical; conditions: 2° C/minute, 2 mg
Experimental: (§6) The thermostability of Stabilizer 2 and that of 2-phenyl-indole were studied by differential thermoanalysis and by thermogravimetric analysis.
Differential thermoanalysis diagrams were drawn up by studying 2 mg samples of material placed in a non-airtight container, the rate of temperature increase being 2° C/minute and sensitivity 4 mcal/sec.
The diagrams were made out for 2-phenyl-indole (i) and Compound 2 (ii) and enabled the following conclusions to be drawn: […]

[8] = Thermostability of the stabilizers: thermogravimetric analysis; format: physicochemical
Experimental: as §6
This analysis necessitated two series of trials carried out under air and under inert gas (argon) in order to eliminate any possible effect of oxygen. The results obtained were identical.
The temperature increase rate was 80° /hour.
Thermograms were drawn up under air for both 2-phenyl-indole (i) and for Stabilizer 2 (ii) and enabled the following conclusions to be drawn: […]

[9] = Sublimation of the stabilizers; format: physicochemical; conditions: 120° C, 15 Torr, 150 minutes; for Percentage of sublimated substance: cold wall 13° C, 150 mg
From the text: The tendency to sublimate of 2-(3'-methoxy-4'-hydroxy-phenyl)-indole (Stabilizer 2) was compared to that of 2-phenyl-indole.
A sample of the substance to be tested was introduced into a test tube and heated under reduced pressure. The fraction of sublimated substance was recovered on a mobile cold wall.
After a certain period of time, the sublimated substance was weighed and the result expressed as a percentage of the weight of the starting material.
The results obtained can only be of relative value enabling a comparison to be made between two products tested under the same conditions.
Operating conditions (chosen at random)

Structure (SMILES): COc1ccc(-c2cc3ccccc3[nH]2)cc1OCc1ccccc1 [Stabilizer 29, 2-(3'-benzyloxy-4'-methoxy-phenyl)indole]
- LD0 (maximal dose which does not provoke any death) [1]: > 500 mg/kg
- Toxic symptoms [1]: none

Structure (SMILES): c1ccc2[nH]c(-c3ccc4c(c3)OCCO4)cc2c1 [Stabilizer 34, 2-(3',4'-ethylenedioxy-phenyl)-indole]
- LD0 (maximal dose which does not provoke any death) [1]: > 3000 mg/kg
- Toxic symptoms [1]: none

Structure (SMILES): CCCCCCCCCCCCc1cc(-c2cc3ccccc3[nH]2)ccc1OC [Stabilizer 14, 2-(3'-dodecyl-4'-methoxy-phenyl)-indole]
- Toxic symptoms [2]: none
- LD50 [3]: > 3000 mg/kg
- Extractibility compared with 2-phenyl-indole [4]: markedly less extractible than 2-phenyl-indole

Structure (SMILES): CCCCCCCCCCCCOc1ccc(-c2cc3ccccc3[nH]2)cc1OC [Stabilizer 24, 2-(3'-methoxy-4'-dodecyloxy-phenyl)-indole]
- Extractibility compared with 2-phenyl-indole [4]: markedly less extractible than 2-phenyl-indole

Structure (SMILES): COc1ccc(-c2cc3ccccc3[nH]2)cc1C(C)C [Stabilizer 15, 2-(3'-isopropyl-4'-methoxy-phenyl)-indole]
- Toxic symptoms [2]: none
- LD50 [3]: > 3000 mg/kg

- Static thermostability compared with 2-phenyl-indole ([5]; Compound A, 210° C): clearly superior to 2-phenyl-indole
Structure (SMILES): COc1ccc(-c2cc3ccccc3[nH]2)cc1O [Stabilizer 13, 2-(3'-hydroxy-4'-methoxy-phenyl)-indole]

Structure (SMILES): COc1cc(OC)cc(-c2cc3ccccc3[nH]2)c1 [Stabilizer 3, 2-(3',5'-dimethyoxy-phenyl)-indole]
- Static thermostability compared with 2-phenyl-indole ([5]; Compound A, 210° C): markedly superior to 2-phenyl-indole
- Toxic symptoms [2]: none
- LD50 [3]: > 2000 mg/kg

Structure (SMILES): COc1cc(-c2cc3ccccc3[nH]2)ccc1OCc1ccccc1 [Stabilizer 31, 2-(3'-methoxy-4'-benzyloxy-phenyl)-indole]
- LD0 (maximal dose which does not provoke any death) [1]: > 500 mg/kg
- Toxic symptoms [1]: none

Structure (SMILES): CCOc1ccc(-c2cc3ccccc3[nH]2)cc1OC [Stabilizer 23, 2-(3'-methoxy-4'-ethoxy-phenyl)-indole]
- LD0 (maximal dose which does not provoke any death) [1]: > 500 mg/kg
- Toxic symptoms [1]: none

Structure (SMILES): COc1cc(-c2cc3ccccc3[nH]2)ccc1OC(C)C [Stabilizer 27, 2-(3'-methoxy-4'-isopropyloxy-phenyl)-indole]
- LD0 (maximal dose which does not provoke any death) [1]: > 3000 mg/kg
- Toxic symptoms [1]: none

Structure (SMILES): COc1c(C)cc(-c2cc3ccccc3[nH]2)cc1C [Stabilizer 17, 2-(3',5'-dimethyl-4'-methoxy-phenyl)-indole]
- LD0 (maximal dose which does not provoke any death) [1]: > 3000 mg/kg
- Toxic symptoms [1]: none

Structure (SMILES): CCCCOc1ccc(-c2cc3ccccc3[nH]2)cc1OC [Stabilizer 25, 2-(3'-methoxy-4'-butyloxy-phenyl)-indole]
- LD0 (maximal dose which does not provoke any death) [1]: > 3000 mg/kg
- Toxic symptoms [1]: none

Structure (SMILES): COc1cc(-c2cc3ccccc3[nH]2)ccc1O [Stabilizer 2, 2-(3'-methoxy-4'-hydroxy-phenyl)-indole]
- Static thermostability compared with 2-phenyl-indole ([5]; Compound C, 210° C): superior as a stabilizer to 2-phenyl-indole
- Static thermostability compared with 2-phenyl-indole ([5]; Compound D, 185° C, 0, 10 and 20 minutes): markedly superior to 2-phenyl-indole at 0, 10 and 20 minutes
- Toxic symptoms [2]: none
- LD50 [3]: > 2000 mg/kg
- Static thermostability compared with 2-phenyl-indole ([6]; Compound A): superior to 2-phenylindole
- Static thermostability compared with 2-phenyl-indole ([6]; Compound B): superiority of Stabilizer 2 over 2-phenyl-indole is evident after 21 minutes
- Extractibility, times less than 2-phenyl-indole [4]: at least 10 times less
- Extractibility compared with 2-phenyl-indole [4]: markedly less extractible than 2-phenyl-indole
- Loss of water [7]: no loss of water
- Thermostability compared with 2-phenyl-indole ([8]; thermogravimetric analysis and differential thermoanalysis): greater thermostability than 2-phenyl-indole
- Sublimation compared with 2-phenyl-indole (ratio) [9]: twenty times less than that of 2-phenyl-indole
- Percentage of sublimated substance [9]: 1.2%

Structure (SMILES): CCCCCCCCCCCCOc1ccc(-c2cc3ccccc3[nH]2)cc1C [Stabilizer 30, 2-(3'-methyl-4'-dodecyloxy-phenyl)-indole]
- Extractibility compared with 2-phenyl-indole [4]: markedly less extractible than 2-phenyl-indole

Structure (SMILES): c1ccc2[nH]c(-c3ccc4c(c3)OCO4)cc2c1 [Stabilizer 33, 2-(3',4'-methylenedioxy-phenyl)-indole]
- LD0 (maximal dose which does not provoke any death) [1]: > 3000 mg/kg
- Toxic symptoms [1]: none

Structure (SMILES): c1ccc(-c2cc3ccccc3[nH]2)cc1 [2-phenyl-indole]
- Toxic symptoms [2]: none
- Loss of water [7]: no loss of water at 100 °C
- Residue / decomposition ([8]; under air, 210° C): a yellowish residue was, in fact, obtained at 210 °C which constitutes proof of decomposition
- Percentage of sublimated substance [9]: 26.9%

Structure (SMILES): CCCCCCCCCCCCc1cc(-c2cc3ccccc3[nH]2)ccc1O [Stabilizer 19, 2-(3'-dodecyl-4'-hydroxy-phenyl)-indole]
- Extractibility compared with 2-phenyl-indole [4]: markedly less extractible than 2-phenyl-indole
